Results reported in ChEMBL document CHEMBL2434824, “Synthesis, characterization and molecular docking studies of some new 1,3,4-oxadiazolines bearing 6-methylpyridine moiety for antimicrobial property” (Eur J Med Chem, 2013).
Activity calls are given as the source filed them. The calls are words filed in the database; no cut-off is given here.

Key:
Staphylococcus aureus = test: Antibacterial activity against Staphylococcus aureus ATCC 25923 at 0.5 to 1 mg/ml at 37 degC after 18 hrs by well plate method; assay type: functional, organism-based
[1] = system: Radical scavenging activity; test: Antioxidant activity assessed as DPPH radical scavenging activity at 100 ug after 10 mins by UV-Visible spectrophotometry; assay type: functional
Aspergillus flavus = test: Antifungal activity against Aspergillus flavus at 0.5 to 1 mg/ml at 25 degC after 3 days by well plate method; assay type: functional, organism-based
Pseudomonas aeruginosa = test: Antibacterial activity against Pseudomonas aeruginosa ATCC 27853 at 0.5 to 1 mg/ml at 37 degC after 18 hrs by well plate method; assay type: functional, organism-based
[2] = Antifungal activity against Chrysosporium keratinophilum at 0.5 to 1 mg/ml at 25 degC after 3 days by well plate method; assay type: functional
Escherichia coli = test: Antibacterial activity against Escherichia coli ATCC 25922 at 0.5 to 1 mg/ml at 37 degC after 18 hrs by well plate method; assay type: functional, organism-based

CC(=O)N1N=C(c2ccc(C)nc2)OC1c1cccc(Cl)c1F (stereo unspecified)
Activity (Staphylococcus aureus): Active | Activity [1]: 37.3% | Activity (Aspergillus flavus): Active | Activity (Pseudomonas aeruginosa): Active | Activity [2]: Active | Activity (Escherichia coli): Active

CC(=O)N1N=C(c2ccc(C)nc2)OC1(C)c1sccc1Br (stereo unspecified)
Activity (Staphylococcus aureus): Active | Activity [1]: 44.2% | Activity (Aspergillus flavus): Active | Activity (Pseudomonas aeruginosa): Active | Activity [2]: Active | Activity (Escherichia coli): Active

CC(=O)N1N=C(c2ccc(C)nc2)OC1(C)c1ccc([N+](=O)[O-])cc1 (stereo unspecified)
Activity (Staphylococcus aureus): Active | Activity [1]: 52.4% | Activity (Pseudomonas aeruginosa): Active | Activity (Escherichia coli): Active

CC(=O)N1N=C(c2ccc(C)nc2)OC1c1ccc(-c2ccccc2)cc1 (stereo unspecified)
Activity [1]: 15.6%

CC(=O)N1N=C(c2ccc(C)nc2)OC1(C)c1ccc(-c2ccccc2)cc1 (stereo unspecified)
Activity [1]: 47.7%

CC(=O)N1N=C(c2ccc(C)nc2)OC1c1cccs1 (stereo unspecified)
Activity [1]: 12%

COc1ccc(C2OC(c3ccc(C)nc3)=NN2C(C)=O)c(OC)c1 (stereo unspecified)
Activity [1]: 24.3%

CC(=O)N1N=C(c2ccc(C)nc2)OC1c1ccc(Br)cc1 (stereo unspecified)
Activity (Staphylococcus aureus): Active | Activity [1]: 65.5% | Activity (Aspergillus flavus): Active | Activity (Pseudomonas aeruginosa): Active | Activity [2]: Active | Activity (Escherichia coli): Active

CC(=O)N1N=C(c2ccc(C)nc2)OC1c1ccc(Cl)cc1Cl (stereo unspecified)
Activity (Staphylococcus aureus): Active | Activity [1]: 62.3% | Activity (Aspergillus flavus): Active | Activity (Pseudomonas aeruginosa): Active | Activity [2]: Active | Activity (Escherichia coli): Active

CC(=O)N1N=C(c2ccc(C)nc2)OC1c1ccc(O)c(O)c1 (stereo unspecified)
Activity [1]: 13.3%

CC(=O)N1N=C(c2ccc(C)nc2)OC1(C)c1cccc(Br)c1 (stereo unspecified)
Activity (Staphylococcus aureus): Active | Activity [1]: 32.9% | Activity (Aspergillus flavus): Active | Activity (Pseudomonas aeruginosa): Active | Activity [2]: Active | Activity (Escherichia coli): Active

Cc1cc(C(C)(C)C)c(O)c(C(C)(C)C)c1
Activity [1]: 92.4%

CC(=O)N1N=C(c2ccc(C)nc2)OC1c1ccc(Cl)cc1 (stereo unspecified)
Activity (Staphylococcus aureus): Active | Activity [1]: 49.2% | Activity (Pseudomonas aeruginosa): Active | Activity (Escherichia coli): Active

COc1ccc2cc(C3OC(c4ccc(C)nc4)=NN3C(C)=O)ccc2c1 (stereo unspecified)
Activity [1]: 27.5%

CN[C@@H]1[C@H](O[C@H]2[C@H](O[C@H]3[C@H](O)[C@@H](O)[C@H](N=C(N)N)[C@@H](O)[C@@H]3N=C(N)N)O[C@@H](C)[C@]2(O)C=O)O[C@@H](CO)[C@H](O)[C@H]1O
Activity (Staphylococcus aureus): Active | Activity (Pseudomonas aeruginosa): Active | Activity (Escherichia coli): Active

OC(Cn1cncn1)(Cn1cncn1)c1ccc(F)cc1F
Activity (Aspergillus flavus): Active | Activity [2]: Active

CC(=O)c1ccc(C2(C)OC(c3ccc(C)nc3)=NN2C(C)=O)cc1 (stereo unspecified)
Activity [1]: 42.3%
